Source: the NIST ThermoML archive (doi:10.1016/j.tca.2006.01.013)
Numbers after ± are expanded uncertainties.

Test: xn = mol fraction of the nth substance listed
Settings: 101 kPa, Liquid, Vibrating tube method

NCCN [ethane-1,2-diamine] + O
mass density (323.15 K, x2 = 0.0401): 872.83 ± 0.44 kg/m3 | mass density (323.15 K, x2 = 0.0797): 876.97 ± 0.42 kg/m3 | mass density (323.15 K, x2 = 0.1199): 881.48 ± 0.41 kg/m3 | mass density (323.15 K, x2 = 0.1598): 886.3 ± 0.39 kg/m3 | mass density (323.15 K, x2 = 0.2003): 891.39 ± 0.38 kg/m3 | mass density (323.15 K, x2 = 0.25): 897.71 ± 0.36 kg/m3 | mass density (323.15 K, x2 = 0.2999): 904.5 ± 0.34 kg/m3 | mass density (323.15 K, x2 = 0.3497): 911.88 ± 0.32 kg/m3 | mass density (323.15 K, x2 = 0.3998): 919.54 ± 0.3 kg/m3 | mass density (323.15 K, x2 = 0.4504): 927.55 ± 0.28 kg/m3 | mass density (323.15 K, x2 = 0.5001): 935.8 ± 0.27 kg/m3 | mass density (323.15 K, x2 = 0.5499): 944.38 ± 0.24 kg/m3 | mass density (323.15 K, x2 = 0.5998): 952.77 ± 0.22 kg/m3 | mass density (323.15 K, x2 = 0.6499): 960.7 ± 0.19 kg/m3 | mass density (323.15 K, x2 = 0.7004): 967.91 ± 0.17 kg/m3 | mass density (323.15 K, x2 = 0.7499): 973.34 ± 0.14 kg/m3 | mass density (323.15 K, x2 = 0.8): 976.78 ± 0.12 kg/m3 | mass density (323.15 K, x2 = 0.84): 978.35 ± 0.1 kg/m3 | mass density (323.15 K, x2 = 0.88): 979.3 ± 0.09 kg/m3 | mass density (323.15 K, x2 = 0.9193): 980.41 ± 0.07 kg/m3 | mass density (323.15 K, x2 = 0.9599): 982.91 ± 0.06 kg/m3 | mass density (328.15 K, x2 = 0.0401): 868.06 ± 0.44 kg/m3 | mass density (328.15 K, x2 = 0.0797): 872.2 ± 0.42 kg/m3 | mass density (328.15 K, x2 = 0.1199): 876.73 ± 0.41 kg/m3 | mass density (328.15 K, x2 = 0.1598): 881.56 ± 0.39 kg/m3 | mass density (328.15 K, x2 = 0.2003): 886.66 ± 0.37 kg/m3 | mass density (328.15 K, x2 = 0.25): 892.99 ± 0.36 kg/m3 | mass density (328.15 K, x2 = 0.2999): 899.79 ± 0.34 kg/m3 | mass density (328.15 K, x2 = 0.3497): 907.18 ± 0.32 kg/m3 | mass density (328.15 K, x2 = 0.3998): 914.84 ± 0.3 kg/m3 | mass density (328.15 K, x2 = 0.4504): 922.85 ± 0.28 kg/m3 | mass density (328.15 K, x2 = 0.5001): 931.11 ± 0.27 kg/m3 | mass density (328.15 K, x2 = 0.5499): 939.7 ± 0.24 kg/m3 | mass density (328.15 K, x2 = 0.5998): 948.12 ± 0.22 kg/m3 | mass density (328.15 K, x2 = 0.6499): 956.11 ± 0.19 kg/m3 | mass density (328.15 K, x2 = 0.7004): 963.45 ± 0.17 kg/m3 | mass density (328.15 K, x2 = 0.7499): 969.1 ± 0.15 kg/m3 | mass density (328.15 K, x2 = 0.8): 972.86 ± 0.12 kg/m3 | mass density (328.15 K, x2 = 0.84): 974.76 ± 0.1 kg/m3 | mass density (328.15 K, x2 = 0.88): 976.06 ± 0.09 kg/m3 | mass density (328.15 K, x2 = 0.9193): 977.53 ± 0.07 kg/m3 | mass density (328.15 K, x2 = 0.9599): 980.35 ± 0.06 kg/m3 | mass density (333.15 K, x2 = 0.0401): 863.25 ± 0.44 kg/m3 | mass density (333.15 K, x2 = 0.0797): 867.42 ± 0.42 kg/m3 | mass density (333.15 K, x2 = 0.1199): 871.95 ± 0.4 kg/m3 | mass density (333.15 K, x2 = 0.1598): 876.8 ± 0.39 kg/m3 | mass density (333.15 K, x2 = 0.2003): 881.91 ± 0.37 kg/m3 | mass density (333.15 K, x2 = 0.25): 888.25 ± 0.35 kg/m3 | mass density (333.15 K, x2 = 0.2999): 895.05 ± 0.34 kg/m3 | mass density (333.15 K, x2 = 0.3497): 902.45 ± 0.32 kg/m3 | mass density (333.15 K, x2 = 0.3998): 910.11 ± 0.3 kg/m3 | mass density (333.15 K, x2 = 0.4504): 918.12 ± 0.28 kg/m3 | mass density (333.15 K, x2 = 0.5001): 926.38 ± 0.27 kg/m3 | mass density (333.15 K, x2 = 0.5499): 934.98 ± 0.24 kg/m3 | mass density (333.15 K, x2 = 0.5998): 943.43 ± 0.22 kg/m3 | mass density (333.15 K, x2 = 0.6499): 951.49 ± 0.2 kg/m3 | mass density (333.15 K, x2 = 0.7004): 958.96 ± 0.17 kg/m3 | mass density (333.15 K, x2 = 0.7499): 964.81 ± 0.15 kg/m3 | mass density (333.15 K, x2 = 0.8): 968.88 ± 0.12 kg/m3 | mass density (333.15 K, x2 = 0.84): 971.09 ± 0.11 kg/m3 | mass density (333.15 K, x2 = 0.88): 972.74 ± 0.09 kg/m3 | mass density (333.15 K, x2 = 0.9193): 974.54 ± 0.08 kg/m3 | mass density (333.15 K, x2 = 0.9599): 977.65 ± 0.06 kg/m3 | mass density (338.15 K, x2 = 0.0401): 858.43 ± 0.43 kg/m3 | mass density (338.15 K, x2 = 0.0797): 862.6 ± 0.42 kg/m3 | mass density (338.15 K, x2 = 0.1199): 867.15 ± 0.4 kg/m3 | mass density (338.15 K, x2 = 0.1598): 872.01 ± 0.39 kg/m3 | mass density (338.15 K, x2 = 0.2003): 877.13 ± 0.37 kg/m3 | mass density (338.15 K, x2 = 0.25): 883.48 ± 0.35 kg/m3 | mass density (338.15 K, x2 = 0.2999): 890.29 ± 0.34 kg/m3 | mass density (338.15 K, x2 = 0.3497): 897.69 ± 0.32 kg/m3 | mass density (338.15 K, x2 = 0.3998): 905.35 ± 0.3 kg/m3 | mass density (338.15 K, x2 = 0.4504): 913.36 ± 0.28 kg/m3 | mass density (338.15 K, x2 = 0.5001): 921.62 ± 0.27 kg/m3 | mass density (338.15 K, x2 = 0.5499): 930.23 ± 0.24 kg/m3 | mass density (338.15 K, x2 = 0.5998): 938.7 ± 0.22 kg/m3 | mass density (338.15 K, x2 = 0.6499): 946.83 ± 0.2 kg/m3 | mass density (338.15 K, x2 = 0.7004): 954.42 ± 0.17 kg/m3 | mass density (338.15 K, x2 = 0.7499): 960.46 ± 0.15 kg/m3 | mass density (338.15 K, x2 = 0.8): 964.84 ± 0.12 kg/m3 | mass density (338.15 K, x2 = 0.84): 967.34 ± 0.11 kg/m3 | mass density (338.15 K, x2 = 0.88): 969.32 ± 0.09 kg/m3 | mass density (338.15 K, x2 = 0.9193): 971.43 ± 0.08 kg/m3 | mass density (338.15 K, x2 = 0.9599): 974.83 ± 0.07 kg/m3 | mass density (343.15 K, x2 = 0.0401): 853.59 ± 0.43 kg/m3 | mass density (343.15 K, x2 = 0.0797): 857.77 ± 0.42 kg/m3 | mass density (343.15 K, x2 = 0.1199): 862.33 ± 0.4 kg/m3 | mass density (343.15 K, x2 = 0.1598): 867.2 ± 0.39 kg/m3 | mass density (343.15 K, x2 = 0.2003): 872.32 ± 0.37 kg/m3 | mass density (343.15 K, x2 = 0.25): 878.68 ± 0.35 kg/m3 | mass density (343.15 K, x2 = 0.2999): 885.49 ± 0.33 kg/m3 | mass density (343.15 K, x2 = 0.3497): 892.89 ± 0.32 kg/m3 | mass density (343.15 K, x2 = 0.3998): 900.55 ± 0.3 kg/m3 | mass density (343.15 K, x2 = 0.4504): 908.57 ± 0.28 kg/m3 | mass density (343.15 K, x2 = 0.5001): 916.83 ± 0.27 kg/m3 | mass density (343.15 K, x2 = 0.5499): 925.44 ± 0.24 kg/m3 | mass density (343.15 K, x2 = 0.5998): 933.95 ± 0.22 kg/m3 | mass density (343.15 K, x2 = 0.6499): 942.13 ± 0.2 kg/m3 | mass density (343.15 K, x2 = 0.7004): 949.83 ± 0.17 kg/m3 | mass density (343.15 K, x2 = 0.7499): 956.08 ± 0.15 kg/m3 | mass density (343.15 K, x2 = 0.8): 960.73 ± 0.13 kg/m3 | mass density (343.15 K, x2 = 0.84): 963.52 ± 0.11 kg/m3 | mass density (343.15 K, x2 = 0.88): 965.81 ± 0.09 kg/m3 | mass density (343.15 K, x2 = 0.9193): 968.22 ± 0.08 kg/m3 | mass density (343.15 K, x2 = 0.9599): 971.88 ± 0.07 kg/m3 | mass density (348.15 K, x2 = 0.0401): 848.71 ± 0.43 kg/m3 | mass density (348.15 K, x2 = 0.0797): 852.91 ± 0.42 kg/m3 | mass density (348.15 K, x2 = 0.1199): 857.47 ± 0.4 kg/m3 | mass density (348.15 K, x2 = 0.1598): 862.35 ± 0.39 kg/m3 | mass density (348.15 K, x2 = 0.2003): 867.48 ± 0.37 kg/m3 | mass density (348.15 K, x2 = 0.25): 873.85 ± 0.35 kg/m3 | mass density (348.15 K, x2 = 0.2999): 880.67 ± 0.33 kg/m3 | mass density (348.15 K, x2 = 0.3497): 888.07 ± 0.32 kg/m3 | mass density (348.15 K, x2 = 0.3998): 895.73 ± 0.3 kg/m3 | mass density (348.15 K, x2 = 0.4504): 903.74 ± 0.28 kg/m3 | mass density (348.15 K, x2 = 0.5001): 912 ± 0.27 kg/m3 | mass density (348.15 K, x2 = 0.5499): 920.62 ± 0.24 kg/m3 | mass density (348.15 K, x2 = 0.5998): 929.15 ± 0.22 kg/m3 | mass density (348.15 K, x2 = 0.6499): 937.39 ± 0.2 kg/m3 | mass density (348.15 K, x2 = 0.7004): 945.19 ± 0.17 kg/m3 | mass density (348.15 K, x2 = 0.7499): 951.64 ± 0.15 kg/m3 | mass density (348.15 K, x2 = 0.8): 956.56 ± 0.13 kg/m3 | mass density (348.15 K, x2 = 0.84): 959.62 ± 0.11 kg/m3 | mass density (348.15 K, x2 = 0.88): 962.21 ± 0.09 kg/m3 | mass density (348.15 K, x2 = 0.9193): 964.91 ± 0.08 kg/m3 | mass density (348.15 K, x2 = 0.9599): 968.82 ± 0.07 kg/m3 | mass density (353.15 K, x2 = 0.0401): 843.82 ± 0.43 kg/m3 | mass density (353.15 K, x2 = 0.0797): 848.01 ± 0.41 kg/m3 | mass density (353.15 K, x2 = 0.1199): 852.59 ± 0.4 kg/m3 | mass density (353.15 K, x2 = 0.1598): 857.48 ± 0.38 kg/m3 | mass density (353.15 K, x2 = 0.2003): 862.61 ± 0.37 kg/m3 | mass density (353.15 K, x2 = 0.25): 868.98 ± 0.35 kg/m3 | mass density (353.15 K, x2 = 0.2999): 875.81 ± 0.33 kg/m3 | mass density (353.15 K, x2 = 0.3497): 883.2 ± 0.32 kg/m3 | mass density (353.15 K, x2 = 0.3998): 890.86 ± 0.3 kg/m3 | mass density (353.15 K, x2 = 0.4504): 898.87 ± 0.28 kg/m3 | mass density (353.15 K, x2 = 0.5001): 907.14 ± 0.26 kg/m3 | mass density (353.15 K, x2 = 0.5499): 915.76 ± 0.24 kg/m3 | mass density (353.15 K, x2 = 0.5998): 924.32 ± 0.22 kg/m3 | mass density (353.15 K, x2 = 0.6499): 932.61 ± 0.2 kg/m3 | mass density (353.15 K, x2 = 0.7004): 940.53 ± 0.17 kg/m3 | mass density (353.15 K, x2 = 0.7499): 947.14 ± 0.15 kg/m3 | mass density (353.15 K, x2 = 0.8): 952.33 ± 0.13 kg/m3 | mass density (353.15 K, x2 = 0.84): 955.65 ± 0.11 kg/m3 | mass density (353.15 K, x2 = 0.88): 958.53 ± 0.1 kg/m3 | mass density (353.15 K, x2 = 0.9193): 961.5 ± 0.08 kg/m3 | mass density (353.15 K, x2 = 0.9599): 965.65 ± 0.07 kg/m3
